Laboratory results reported in patent US11491228B2, “Hydrogels and uses thereof” (Massachusetts Institute of Technology, priority 2018, dated 2022).

Assay: Release of taxanes from PEG alkynoate-TREN (beta-aminoacrylate) gel into PBS, HPLC
Type: physicochemical
Conditions: 37° C.
Description: Samples were stored at +4° C. […] The wavelength of detection was 227 nm. Phases were A: water, B: MeCN.

Concentrations of taxane following release from PEG alkynoate-TREN gels (1 h, average): 0.03929 µg/mL
Concentrations of taxane following release from PEG alkynoate-TREN gels (1 h, replicate A): -0.1523 µg/mL
Concentrations of taxane following release from PEG alkynoate-TREN gels (1 h, replicate B): 0.4224 µg/mL
Concentrations of taxane following release from PEG alkynoate-TREN gels (1 h, replicate C): -0.1523 µg/mL
Concentrations of taxane following release from PEG alkynoate-TREN gels (2 h, average): 0.2014 µg/mL
Concentrations of taxane following release from PEG alkynoate-TREN gels (2 h, replicate A): -0.1523 µg/mL
Concentrations of taxane following release from PEG alkynoate-TREN gels (2 h, replicate B): 0.555 µg/mL
Concentrations of taxane following release from PEG alkynoate-TREN gels (2 h, replicate C): 0.2014 µg/mL
Concentrations of taxane following release from PEG alkynoate-TREN gels (5 h, average): 0.3635 µg/mL
Concentrations of taxane following release from PEG alkynoate-TREN gels (5 h, replicate A): 1.041 µg/mL
Concentrations of taxane following release from PEG alkynoate-TREN gels (5 h, replicate B): 0.2014 µg/mL
Concentrations of taxane following release from PEG alkynoate-TREN gels (5 h, replicate C): -0.1523 µg/mL
Concentrations of taxane following release from PEG alkynoate-TREN gels (20 h, average): 0.2677 µg/mL
Concentrations of taxane following release from PEG alkynoate-TREN gels (20 h, replicate A): 0.6434 µg/mL
Concentrations of taxane following release from PEG alkynoate-TREN gels (20 h, replicate B): 0.3119 µg/mL
Concentrations of taxane following release from PEG alkynoate-TREN gels (20 h, replicate C): -0.1523 µg/mL
Concentrations of taxane following release from PEG alkynoate-TREN gels (48 h, average): 1.1279 µg/mL
Concentrations of taxane following release from PEG alkynoate-TREN gels (48 h, replicate A): 0.9847 µg/mL
Concentrations of taxane following release from PEG alkynoate-TREN gels (48 h, replicate B): 1.003 µg/mL
Concentrations of taxane following release from PEG alkynoate-TREN gels (48 h, replicate C): 1.396 µg/mL
% released from PEG alkynoate-TREN gels (Table 3, 1 h, average): 0.05239%
% released from PEG alkynoate-TREN gels (Table 3, 1 h, replicate A): −0.203%
% released from PEG alkynoate-TREN gels (Table 3, 1 h, replicate B): 0.5632%
% released from PEG alkynoate-TREN gels (Table 3, 1 h, replicate C): −0.203%
% released from PEG alkynoate-TREN gels (Table 3, 2 h, average): 0.2685%
% released from PEG alkynoate-TREN gels (Table 3, 2 h, replicate A): −0.203%
% released from PEG alkynoate-TREN gels (Table 3, 2 h, replicate B): 0.74%
% released from PEG alkynoate-TREN gels (Table 3, 2 h, replicate C): 0.2685%
% released from PEG alkynoate-TREN gels (Table 3, 5 h, average): 0.4846%
% released from PEG alkynoate-TREN gels (Table 3, 5 h, replicate A): 1.388%
% released from PEG alkynoate-TREN gels (Table 3, 5 h, replicate B): 0.2685%
% released from PEG alkynoate-TREN gels (Table 3, 5 h, replicate C): −0.203%
% released from PEG alkynoate-TREN gels (Table 3, 20 h, average): 0.3569%
% released from PEG alkynoate-TREN gels (Table 3, 20 h, replicate A): 0.8579%
% released from PEG alkynoate-TREN gels (Table 3, 20 h, replicate B): 0.4158%
% released from PEG alkynoate-TREN gels (Table 3, 20 h, replicate C): −0.203%
% released from PEG alkynoate-TREN gels (Table 3, 48 h, average): 1.504%
% released from PEG alkynoate-TREN gels (Table 3, 48 h, replicate A): 1.3129%
% released from PEG alkynoate-TREN gels (Table 3, 48 h, replicate B): 1.337%
% released from PEG alkynoate-TREN gels (Table 3, 48 h, replicate C): 1.862%
% released from PEG alkynoate-TREN gels (Table 4, 1 h, average): 2.074%
% released from PEG alkynoate-TREN gels (Table 4, 1 h, replicate A): 2.465%
% released from PEG alkynoate-TREN gels (Table 4, 1 h, replicate B): 2.016%
% released from PEG alkynoate-TREN gels (Table 4, 1 h, replicate C): 1.741%
% released from PEG alkynoate-TREN gels (Table 4, 6 h, average): 4.82%
% released from PEG alkynoate-TREN gels (Table 4, 6 h, replicate A): 6.195%
% released from PEG alkynoate-TREN gels (Table 4, 6 h, replicate B): 4.946%
% released from PEG alkynoate-TREN gels (Table 4, 6 h, replicate C): 3.318%
% released from PEG alkynoate-TREN gels (Table 4, 24 h, average): 7.196%
% released from PEG alkynoate-TREN gels (Table 4, 24 h, replicate A): 11.23%
% released from PEG alkynoate-TREN gels (Table 4, 24 h, replicate B): 7.325%
% released from PEG alkynoate-TREN gels (Table 4, 24 h, replicate C): 3.032%
% released from PEG alkynoate-TREN gels (Table 4, 96 h, average): 12.3%
% released from PEG alkynoate-TREN gels (Table 4, 96 h, replicate A): 8.246%
% released from PEG alkynoate-TREN gels (Table 4, 96 h, replicate B): 9.349%
% released from PEG alkynoate-TREN gels (Table 4, 96 h, replicate C): 19.32%
Compound: CC(=O)O[C@@]12CO[C@@H]1C[C@H](O)[C@@]1(C)C(=O)[C@H](O)C3=C(C)[C@@H](OC(=O)[C@H](O)[C@@H](NC(=O)OC(C)(C)C)c4ccccc4)C[C@@](O)([C@@H](OC(=O)c4ccccc4)[C@H]21)C3(C)C [Docetaxel, docetaxel]
